Data taken from patent US10011814B2, “Salt formulations for the fermentation of marine microorganisms” (Triphase Research and Development I Corp., priority 2006, dated 2018).

System: Salinispora tropica NPS021184
Experiment: Production of Salinosporamide A and analogs in shake flask or tube culture; titers by HPLC of EtOAc extract
Conditions: for % Increase (+) or % decrease (−) of maximum titer: Ex.1 Table 1; for % Increase (+) or % decrease (−) of max titer: Ex.1 Table 2; for % increase/decrease of titer / relative % change (of % relative to Sal A): Ex.2 Table 3; for % Increase (+) or % decrease (−) of average max titer: Ex.2 Table 4; for relative decrease in production (relative to Salinosporamide A): 208 μg/L CoCl2·6H2O in seed medium, 52 μg/L in production medium vs no cobalt in seed
Description: Seed cultures were prepared by inoculating frozen stock of Salinispora tropica NPS021184 into seed medium.
(§1) The first seed cultures (either 10 mL medium in a 50-mL tube or 100 mL medium in a 500-mL Erlenmeyer flask) were incubated for 3 to 4 days before inoculating into the second seed media with the same composition as the first seed cultures. The second seed cultures (100 mL medium in a 500-mL Erlenmeyer flask) were incubated for two days before inoculating into the production medium (100 mL medium in a 500-mL Erlenmeyer flask).
The chemically defined salt formulation included: […]
(§2) 3.5 mL of the fermentation culture was mixed with equal volume of EtOAc in an extraction tube to extract the various metabolites from the production culture. The mixture was shaken on a shaker for one hr. An aliquot of the extract (1 mL) was removed and dried under a stream of nitrogen. The dried extract was stored at −20° C. freezer before HPLC analysis. The dried extract was resuspended in 320 μL DMSO and injected into HPLC using the 00TF14 method for analysis.
The production of Salinosporamide A, NPI-0047 and NPI-2065 was monitored by Agilent HP1100 HPLC using an ACE C-18 reversed-phase column (4.6×150 mm), and solvent system consisting of water (0.01% TFA) as solvent A and acetonitrile (0.01% TFA) as solvent B. The elution was started at 100% solvent A for 1 min, 100% solvent A to 35% solvent A gradient in 7 min, held at 35% solvent A for 11 min, 35% solvent A to 100% solvent B in 8 min and held at 100% solvent B for 9 min at a flow rate of 1.5 mL/min with the detector wavelength set at 210 nm and column temperature 35° C.
The first seed cultures (either 10 mL medium in a 50-mL tube or 100 ml medium in a 500-ml Erlenmeyer flask) were incubated for 3 to 4 days before inoculating into the second seed media with the same composition as the first seed cultures. The second seed cultures (100 mL medium in a 500-mL Erlenmeyer flask) were incubated for two days before inoculating into the production medium (100 mL medium in a 500-mL Erlenmeyer flask).
as §1, with “in a 50-ml tube or” for “in a 50-mL tube or”, “inoculating into production medium” for “inoculating into the production medium”
as §2, with “shaken” for “shaken on a shaker”, “1” for “one”, “[…]” for “μL”, “TFS7” for “00TF14”
The production of Salinosporamide A, NPI-0047 and NPI-2065 was monitored by Agilent HP1100 HPLC using an ACE C-18 reversed-phase column (4.6×150 mm), and isocratic solvent system consisting of 67% water (0.01% TFA) and 33% acetonitrile (0.01% TFA). The flow rate was 1.5 mL/min for 15 min with the detector wavelength set at 210 nm and column temperature 35° C.
3.5 mL of the fermentation culture was mixed with equal volume of EtOAc in an extraction tube to extract the various metabolites from the production culture. The mixture was shaken on the shaker for 1 hr. An aliquot of the extract (1 mL) was removed and dried under a stream of nitrogen. The dried extract was stored at −20° C. freezer before HPLC analysis. The dried extract was resuspended in 320 μL DMSO and injected into HPLC using the TFS7 method for analysis. […]

[1] = 104 μg/L CoCl2·6H2O in production medium vs no addition
[2] = 1.04 mg/L CoCl2·6H2O in production medium vs no addition
[3] = 10.4 mg/L CoCl2·6H2O in production medium vs no addition
[4] = 2.6 μg/L CoCl2·6H2O in production medium vs control
[5] = 5.2 μg/L CoCl2·6H2O in production medium vs control
[6] = 6.5 μg/L CoCl2·6H2O in production medium vs control
[7] = 13 μg/L CoCl2·6H2O in production medium vs control
[8] = 26 μg/L CoCl2·6H2O in production medium vs control
[9] = 52 μg/L CoCl2·6H2O in production medium vs control
[10] = 104 μg/L CoCl2·6H2O in production medium vs control
[11] = 208 μg/L CoCl2·6H2O in production medium vs control
[12] = 416 μg/L CoCl2·6H2O in production medium vs control
[13] = seed CoCl2·6H2O 0 μg/L (reference)
[14] = seed CoCl2·6H2O 2.6 μg/L vs 0 μg/L
[15] = seed CoCl2·6H2O 5.2 μg/L vs 0 μg/L
[16] = seed CoCl2·6H2O 13 μg/L vs 0 μg/L
[17] = seed CoCl2·6H2O 26 μg/L vs 0 μg/L
[18] = seed CoCl2·6H2O 52 μg/L vs 0 μg/L
[19] = seed CoCl2·6H2O 104 μg/L vs 0 μg/L
[20] = seed CoCl2·6H2O 208 μg/L vs 0 μg/L
[21] = seed CoCl2·6H2O 416 μg/L vs 0 μg/L
[22] = CoCl2·6H2O seed 0 / production 52 μg/L vs no cobalt
[23] = CoCl2·6H2O seed 208 μg/L / production 52 μg/L vs no cobalt
[24] = Ex.2, cobalt in both seed (208 μg/L) and production (52 μg/L) media vs media without cobalt
[25] = Ex.2, cobalt in seed and production media vs cobalt in production medium only

SMILES | % Increase (+) or % decrease (−) of maximum titer [1] [%] | % Increase (+) or % decrease (−) of maximum titer [2] [%] | % Increase (+) or % decrease (−) of maximum titer [3] [%] | % Increase (+) or % decrease (−) of max titer [4] | % Increase (+) or % decrease (−) of max titer [5] [%] | % Increase (+) or % decrease (−) of max titer [6] | % Increase (+) or % decrease (−) of max titer [7] [%] | % Increase (+) or % decrease (−) of max titer [8] | % Increase (+) or % decrease (−) of max titer [9] [%] | % Increase (+) or % decrease (−) of max titer [10] [%] | % Increase (+) or % decrease (−) of max titer [11] | % Increase (+) or % decrease (−) of max titer [12] [%] | % increase/decrease of titer [13] [%] | % increase/decrease of titer [14] [%] | % increase/decrease of titer [15] [%] | % increase/decrease of titer [16] [%] | % increase/decrease of titer [17] [%] | % increase/decrease of titer [18] [%] | % increase/decrease of titer [19] [%] | % increase/decrease of titer [20] [%] | other results
CC[C@H]1C(=O)N[C@@]2([C@@H](O)[C@@H]3C=CCCC3)C(=O)O[C@@]12C [NPI-0047, Salinosporamide B] | −65.9 | −67.4 | −71.3 | −18.6% | −41.2 | −38.2% | −52.0 | −63.7% | −69.6 | −65.7 | −69.6% | −73.5 | 0.0 | 5.9 | 2.0 | −17.2 | −2.3 | −21.6 | −9.2 | −11.9 | reduction of concentration in the fermentation (Ex.14, 0.22 μM vitamin B12 added to production medium (Instant Ocean based)): 74%; reduction of production (Ex.1, 52 μg/L cobalt concentration in production medium vs control): 69.6%; decrease in production (Ex.1, 104 μg/L CoCl2·6H2O added to production medium vs none): 66%; relative % change (of % relative to Sal A) [13]: 0.0%; relative % change (of % relative to Sal A) [14]: 4.2%; relative % change (of % relative to Sal A) [15]: −2.7%; relative % change (of % relative to Sal A) [16]: −20.2%; relative % change (of % relative to Sal A) [17]: −28.4%; relative % change (of % relative to Sal A) [18]: −36.1%; relative % change (of % relative to Sal A) [19]: −29.9%; relative % change (of % relative to Sal A) [20]: −41.3%; % increase/decrease of titer [21]: −10.4%; relative % change (of % relative to Sal A) [21]: −21.5%; % Increase (+) or % decrease (−) of average max titer [22]: −71.7%; % Increase (+) or % decrease (−) of average max titer [23]: −78.0%; reduction of production by cobalt (Ex.21, NPS21184, CoCl2·6H2O 208 μg/L seed, 52 μg/L production vs no cobalt): 91%; relative decrease in production (relative to Salinosporamide A) (Ex.2): 41.3%; reduction of production [24]: 78.0%; reduction of production [25]: 22.2%
C[C@@]12OC(=O)[C@]1([C@@H](O)[C@@H]1C=CCCC1)NC(=O)[C@H]2CCCl [NPI-2065] | −21.0 | −12.2 | −30.8 | −7.6% | −1.5 | −6.1% | −1.5 | +3.0% | −4.6 | −1.5 | −6.1% | −15.2 | 0.0 | 1.7 | 4.2 | 5.9 | 23.1 | 17.7 | 15.5 | 19.7 | reduction of concentration in the fermentation (Ex.14, vitamin B12 in Instant Ocean based medium): 30%; reduction of concentration in the fermentation (Ex.15, Vitamin B12 or CoCl2·6H2O at 0.22 μM in salt formulation based medium): no reduction; maximum inhibition of production (Ex.1, 416 μg/L, highest cobalt concentration tested in production medium): 15%; inhibition of production (Ex.1, 10.4 mg/L CoCl2·6H2O in production medium vs none): 30.8%; relative % change (of % relative to Sal A) [13]: 0.0%; relative % change (of % relative to Sal A) [14]: 0.0%; relative % change (of % relative to Sal A) [15]: −0.5%; relative % change (of % relative to Sal A) [16]: 3.5%; relative % change (of % relative to Sal A) [17]: 3.5%; relative % change (of % relative to Sal A) [18]: 7.9%; relative % change (of % relative to Sal A) [19]: −0.5%; relative % change (of % relative to Sal A) [20]: −1.4%; % increase/decrease of titer [21]: 6.2%; relative % change (of % relative to Sal A) [21]: −3%; % Increase (+) or % decrease (−) of average max titer [22]: −37.2%; % Increase (+) or % decrease (−) of average max titer [23]: −44.9%; relative decrease in production (relative to Salinosporamide A) (Ex.2): 1.4%; reduction of production [24]: 44.9%; reduction of production [25]: 12.2%
C[C@@]12OC(=O)[C@]1([C@@H](O)[C@@H]1C=CCCC1)NC(=O)[C@@H]2CCCl [Salinosporamide A] | 1.5 | 2.2 | −1.4 | +1.1% | −8.9 | +1.2% | −0.3 | −4.0% | −4.5 | −3.0 | +0.2% | −8.5 | 0.0 | 1.7 | 4.7 | 2.5 | 20.3 | 10.7 | 15.9 | 20.8 | maximum production as % of the high sodium medium (Ex.11, low sodium medium (9.3 mM sodium, SHY.KCD) vs high sodium medium (413 mM sodium, SHY.B4C)): about 75%; % increase/decrease of titer [21]: 9.2%; % Increase (+) or % decrease (−) of average max titer [22]: +10.1%; % Increase (+) or % decrease (−) of average max titer [23]: 33.9%; % Increase (+) or % decrease (−) of average max titer (CoCl2·6H2O seed 208 μg/L / production 52 μg/L vs no cobalt, listed as SALINOSPORAMIDE A): +33.9%; concentration as % of the saline fermentation condition (Ex.23, low chloride medium (LoCl.PD) vs saline medium): about 35%; increase of production [25]: 21.6%
